From ChEMBL document CHEMBL1909046, “DrugMatrix in vitro pharmacology data”

Tests used:
[1] = molecular target: T1, Alpha-1A adrenergic receptor (Rattus norvegicus, UniProt P43140); test: DRUGMATRIX: Alpha-1A adrenergic receptor radioligand binding (ligand: prazosin); type: cell membranes, Wistar, Submaxillary gland, Membrane; conditions: Not Active = under 50% inhibition at 10 µM; for Ki: read-out: Ki
T1 sequence (P43140 whole entry): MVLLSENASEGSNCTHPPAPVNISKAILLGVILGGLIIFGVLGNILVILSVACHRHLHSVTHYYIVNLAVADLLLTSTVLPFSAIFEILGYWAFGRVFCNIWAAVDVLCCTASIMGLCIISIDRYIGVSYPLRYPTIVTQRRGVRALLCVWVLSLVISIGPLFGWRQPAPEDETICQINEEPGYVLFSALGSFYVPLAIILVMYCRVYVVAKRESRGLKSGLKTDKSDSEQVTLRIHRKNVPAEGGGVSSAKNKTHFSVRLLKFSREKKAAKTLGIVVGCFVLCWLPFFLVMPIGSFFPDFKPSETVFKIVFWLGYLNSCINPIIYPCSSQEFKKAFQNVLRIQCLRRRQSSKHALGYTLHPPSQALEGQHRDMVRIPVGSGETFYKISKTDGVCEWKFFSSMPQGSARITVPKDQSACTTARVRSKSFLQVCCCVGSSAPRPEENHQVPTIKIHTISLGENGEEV

[2] = molecular target: T2, 5-hydroxytryptamine receptor 2C (Homo sapiens, UniProt P28335); test: DRUGMATRIX: Serotonin (5-Hydroxytryptamine) 5-HT2C radioligand binding (ligand: [3H] Mesulergine); type: cell membranes, CHO-K1, Membrane; conditions: Not Active = under 50% inhibition at 10 µM; for Ki: read-out: Ki
T2 sequence (P28335 whole entry): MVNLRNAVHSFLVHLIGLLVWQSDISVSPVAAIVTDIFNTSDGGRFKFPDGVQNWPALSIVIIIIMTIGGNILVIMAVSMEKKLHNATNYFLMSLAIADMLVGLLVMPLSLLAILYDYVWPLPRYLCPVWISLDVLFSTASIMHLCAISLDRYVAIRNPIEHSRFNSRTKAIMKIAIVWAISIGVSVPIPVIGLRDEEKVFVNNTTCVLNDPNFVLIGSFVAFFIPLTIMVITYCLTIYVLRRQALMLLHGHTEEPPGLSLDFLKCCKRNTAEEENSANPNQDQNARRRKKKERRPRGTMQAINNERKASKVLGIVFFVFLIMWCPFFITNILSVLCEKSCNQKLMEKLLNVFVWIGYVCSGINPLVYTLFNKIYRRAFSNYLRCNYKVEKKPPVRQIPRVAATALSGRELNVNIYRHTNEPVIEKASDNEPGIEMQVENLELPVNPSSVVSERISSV

Melanocortin receptor 4 = Melanocortin receptor 4 (Homo sapiens, UniProt P32245); type: cell membranes, Membrane; conditions: hek293; further: in other assays of this panel Not Active means under 50% inhibition at 10 µM
[3] = molecular target: T3, Amine oxidase [flavin-containing] A (Homo sapiens, UniProt P21397); test: DRUGMATRIX: Monoamine Oxidase MAO-A enzyme inhibition (substrate: Kynuramine); parameters: species or system BTI-TN-5B1-4; conditions: bti-tn-5b1-4; Not Active = under 50% inhibition at 10 µM
T3 sequence (P21397 whole entry): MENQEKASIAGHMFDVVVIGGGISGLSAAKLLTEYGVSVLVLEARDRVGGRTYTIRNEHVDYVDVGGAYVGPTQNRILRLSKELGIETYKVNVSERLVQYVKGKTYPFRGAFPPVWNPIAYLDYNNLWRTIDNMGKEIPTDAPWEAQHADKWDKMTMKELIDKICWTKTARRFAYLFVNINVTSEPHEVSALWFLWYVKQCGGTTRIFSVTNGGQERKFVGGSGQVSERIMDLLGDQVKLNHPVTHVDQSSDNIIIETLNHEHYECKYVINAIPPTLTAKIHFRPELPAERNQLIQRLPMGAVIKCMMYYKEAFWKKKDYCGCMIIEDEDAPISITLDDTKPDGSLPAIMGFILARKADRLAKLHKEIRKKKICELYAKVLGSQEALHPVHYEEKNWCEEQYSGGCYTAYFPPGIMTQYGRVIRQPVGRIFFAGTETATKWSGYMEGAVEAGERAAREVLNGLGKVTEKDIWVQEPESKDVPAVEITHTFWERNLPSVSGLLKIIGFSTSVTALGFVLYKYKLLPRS

[4] = molecular target: Platelet-activating factor receptor (Homo sapiens, UniProt P25105); type: tissue-based; further: in other assays of this panel Not Active means under 50% inhibition at 10 µM
Neutrophil elastase = molecular target: T4, Neutrophil elastase (Homo sapiens, UniProt P08246); type: tissue-based;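 further: inhibition of neutrophil elastase enzyme activity, measured with a p-nitroanilide-linked peptide substrate; in other assays of this panel Not Active means under 50% inhibition at 10 µM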
T4 sequence (P08246 whole entry): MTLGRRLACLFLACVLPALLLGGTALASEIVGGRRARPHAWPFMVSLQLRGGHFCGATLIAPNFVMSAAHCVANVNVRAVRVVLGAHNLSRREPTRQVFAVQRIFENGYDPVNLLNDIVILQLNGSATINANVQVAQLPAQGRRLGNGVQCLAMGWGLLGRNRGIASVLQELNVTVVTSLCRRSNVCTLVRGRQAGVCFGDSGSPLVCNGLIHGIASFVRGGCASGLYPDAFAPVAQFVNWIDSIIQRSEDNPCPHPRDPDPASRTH

Cytochrome P450 1A2 = molecular target: T5, Cytochrome P450 1A2 (Homo sapiens, UniProt P05177); conditions: bti-tn-5b1-4; further: in other assays of this panel Not Active means under 50% inhibition at 10 µM
T5 sequence (P05177 whole entry): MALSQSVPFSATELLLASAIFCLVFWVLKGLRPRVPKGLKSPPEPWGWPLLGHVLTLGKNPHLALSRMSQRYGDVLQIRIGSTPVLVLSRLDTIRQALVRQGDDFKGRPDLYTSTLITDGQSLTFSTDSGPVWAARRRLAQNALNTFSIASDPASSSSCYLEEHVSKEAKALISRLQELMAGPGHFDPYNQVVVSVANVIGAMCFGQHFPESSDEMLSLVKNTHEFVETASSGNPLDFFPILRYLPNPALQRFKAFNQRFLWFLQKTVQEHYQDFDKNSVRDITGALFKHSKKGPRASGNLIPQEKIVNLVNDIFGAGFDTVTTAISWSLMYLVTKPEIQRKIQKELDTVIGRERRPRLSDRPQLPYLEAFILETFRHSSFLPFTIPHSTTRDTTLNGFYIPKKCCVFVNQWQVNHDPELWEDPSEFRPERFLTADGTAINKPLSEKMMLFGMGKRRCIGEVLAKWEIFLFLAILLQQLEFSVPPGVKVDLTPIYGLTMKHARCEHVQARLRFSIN

Chain of Platelet-activating factor receptor (P25105 whole entry): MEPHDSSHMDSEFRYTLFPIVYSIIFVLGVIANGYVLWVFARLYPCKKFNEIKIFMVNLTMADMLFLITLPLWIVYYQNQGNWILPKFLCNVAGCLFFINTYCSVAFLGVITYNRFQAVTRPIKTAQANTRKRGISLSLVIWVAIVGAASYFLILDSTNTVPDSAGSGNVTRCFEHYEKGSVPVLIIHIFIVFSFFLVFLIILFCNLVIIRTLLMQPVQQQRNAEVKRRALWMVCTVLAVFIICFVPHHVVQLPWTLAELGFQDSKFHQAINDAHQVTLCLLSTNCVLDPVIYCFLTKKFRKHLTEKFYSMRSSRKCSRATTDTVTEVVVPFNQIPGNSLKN
Chain of Melanocortin receptor 4 (P32245 whole entry): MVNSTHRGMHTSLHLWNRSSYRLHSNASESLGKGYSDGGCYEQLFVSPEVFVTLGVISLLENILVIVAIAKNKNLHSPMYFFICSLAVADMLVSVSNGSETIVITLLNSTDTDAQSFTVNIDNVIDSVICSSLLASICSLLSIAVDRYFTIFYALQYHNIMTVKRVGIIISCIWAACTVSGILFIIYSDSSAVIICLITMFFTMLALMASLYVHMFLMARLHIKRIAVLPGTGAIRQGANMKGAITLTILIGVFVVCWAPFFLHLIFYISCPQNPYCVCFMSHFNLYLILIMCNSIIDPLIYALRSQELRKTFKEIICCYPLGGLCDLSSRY

Row | Structure (SMILES) | IC50 [1] | IC50 ([2]; cho-k1) | IC50 (Melanocortin receptor 4) | IC50 [3] | IC50 [4] | IC50 (Neutrophil elastase) | IC50 (Cytochrome P450 1A2) | Ki (Cytochrome P450 1A2) | IC50 ([1]; read-out: IC50) | Ki [1] | IC50 ([2]; read-out: IC50) | Ki [2]
1 | CCCCC(=O)N(Cc1ccc(-c2ccccc2-c2nnn[nH]2)cc1)[C@H](C(=O)O)C(C)C | Not Active | Not Active | Not Active | Not Active | Not Active | Not Active | Not Active | Not Active | – | – | – | –
2 | O=C(O)COc1ccc(C(=O)c2cccs2)c(Cl)c1Cl | Not Active | Not Active | Not Active | Not Active | Not Active | Not Active | Not Active | Not Active | – | – | – | –
3 | CN1[C@@H]2CC[C@H]1C[C@@H](OC(c1ccccc1)c1ccccc1)C2 [BENZTROPINE] | – | – | Not Active | Not Active | Not Active | Not Active | Not Active | Not Active | 0.142 µM | 0.057 µM | 0.061 µM | 0.032 µM
4 | C[C@@](Cc1ccc(O)c(O)c1)(NN)C(=O)O.O [CARBIDOPA] | Not Active | Not Active | Not Active | Not Active | Not Active | Not Active | Not Active | Not Active | – | – | – | –
5 | CN1CCN(C2=Nc3cc(Cl)ccc3Nc3ccccc32)CC1 [CLOZAPINE] | – | – | Not Active | Not Active | Not Active | Not Active | Not Active | Not Active | – | – | – | –
6 | CC(C)NC[C@@H](O)COc1cccc2ccccc12 [DEXPROPRANOLOL] | Not Active | Not Active | Not Active | Not Active | Not Active | Not Active | Not Active | Not Active | – | – | – | –
7 | CC(C)NC[C@H](O)COc1cccc2ccccc12 [LEVOPROPRANOLOL] | Not Active | – | Not Active | Not Active | Not Active | Not Active | Not Active | Not Active | – | – | – | –
8 | O=C(O)CCCCC1CCSS1 (stereo not drawn) [LIPOIC ACID, ALPHA] | Not Active | Not Active | Not Active | Not Active | Not Active | Not Active | Not Active | Not Active | – | – | – | –
9 | CN(C)C(=O)C(CCN1CCC(O)(c2ccc(Cl)cc2)CC1)(c1ccccc1)c1ccccc1 [LOPERAMIDE] | – | Not Active | Not Active | Not Active | Not Active | Not Active | Not Active | Not Active | 6.22 µM | 2.52 µM | – | –
10 | Clc1ccc(COC(Cn2ccnc2)c2ccc(Cl)cc2Cl)c(Cl)c1 (stereo unspecified) [MICONAZOLE] | Not Active | – | – | Not Active | Not Active | Not Active | Not Active | Not Active | – | – | 5.31 µM | 2.78 µM
11 | Oc1ccc2c3c1O[C@H]1[C@@H](O)CC[C@@]4(O)[C@@H](C2)N(CC2CCC2)CC[C@]314 [NALBUPHINE] | Not Active | Not Active | Not Active | Not Active | Not Active | Not Active | – | – | – | – | – | –
